In brackets after ≈: the same amount, converted by molar mass. Several values for one entry are separate records, joined by “and”; a condition that tells them apart may be missing. Equal entries are not always repeated. Where two headings read alike, the source gives them in different places.
Experiments:
MDA-MB-231 cells = assay: TNBC cell invasion, Transwells coated with Matrigel; type: cell-based; conditions: 10 μM, 24-72 hours
Procedure: (§1) FIGS. 2A and 2B are graphs showing the effect of VMY-BC-1 on TNBC cells. […] The percentage of cells crossing the chamber is presented as the mean±SEM. *P<0.05.
(§2) Effect of VMY-BC-1 on Triple Negative Breast Cancer Cell Lines A trans-stilbene boronic acid analog, VMY-BC-1, was tested against a TNBC cell line.

Thermodynamic solubility = type: physicochemical; conditions: pH 7.4, aqueous buffer, thermodynamic from solid
Procedure: Moreover, PK studies of RSV in humans conclude that even high concentration of RSV might be insufficient to achieve in vivo concentrations required for the systemic prevention of cancer. Therefore, in vitro ADME assays were carried out to assess VMY-BC-1 and to identify properties for further optimization.

Caco-2 permeability = type: in vitro ADME; conditions: human, Caco-2
Caco-2 cell model = assay: Caco-2 permeability; type: in vitro ADME
[1] = tested on: polyQ-expressing C. elegans; assay: PolyQ aggregation in C. elegans Huntington's disease model; type: in vivo; conditions: 1 μM, 72 hours
Procedure: Synchronized populations of polyQ-expressing C. elegans were grown for 72 hours on media containing 1 μM VMY-BC-1. PolyQ aggegrative vacuoles were detected using confocal microscopy. PolyQ aggregations were decreased compared to vehicle (DMSO) (FIG. 21A). Synchronized populations of wild-type worms were grown on media containing VMY-BC-1 from 0.1 to 10 μM.

[2] = Stability in simulated gastric fluid; type: physicochemical
[3] = Plasma vs tumor PK in MDA-MB-231 xenograft mice; type: in vivo, athymic nude mice
Procedure: FIGS. 10A and 10B are graphs showing plasma (FIG. 10A) and tumor (FIG. 10B) concentrations of VMY-BC-1 in MDA-MB-231 xenograft mice administered 75 mg/kg VMY-BC-1.
At the end of the study, brain and plasma samples were collected for drug concentration. Tumor tissues were collected for immunohistochemistry, Western blot, and bioanalysis. Statistical analysis of tumor growth in the control and treated groups was performed by Student's T test using GraphPad Prism (Ver. 5.03).
The impact of VMY-BC-1 on autophagy proteins in tumor tissue was also investigated. […] Finally, as shown in Table 4 and FIGS. 10A and 10B, VMY-BC-1 had 3-fold higher drug concentration (Cmax) in tumors than in plasma.

ATM and ULK1 = assay: Cell viability assays with siRNA knock down of binding proteins; type: cell-based; conditions: preliminary
Procedure: To identify the functional target of VMY-BC-1, preliminary cell viability assays were carried out using siRNA to knock down each of the 10 identified binding proteins. […] Considering that that low ULK1 expression is associated with TNBC disease progression (Tang et al., Breast Cancer Res. Treat. 134:549-560, 2012) and autophagy controls the level of various DNA repair and checkpoint proteins in the DNA damage response pathway (Czarny et al., Int. J. Mol. Sci. 16:2641-2662, 2015; Gomes et al., Int. J. Mol. Sci. 18:2351, 2017), ULK1 activity in response to VMY-BC-1 was investigated. Protein extracts were made from MDA-MB-231 cells treated with vehicle control, VMY-BC-1 (10 μM), and Rapamycin (200 nM) at different time points.

U87 MG tumor xenografts = assay: U87 GBM tumor xenograft efficacy; type: in vivo, SCID mice
Procedure: To evaluate the anti-tumor efficacy of VMY-BC-1 in vivo, GBM tumor xenografts were established in the flanks of SCID mice. 5×10^6 U87 MG (ATCC HTB-14™) cells in 1×HBSS with 1:1 Matrigel® were implanted subcutaneously in the flank of 5-6 week old female SCID mice (C.B-lgh-1b/GbmsTac-Prkdc^scid-Lyst^bg N7; Taconic Biosciences, India). Mice (n=8) were treated with vehicle (2% (v/v) Tween® 80+98% (v/v) of 0.5% (w/v) hydroxypropyl methylcellulose (HPMC) in water) or VMY-BC-1 75 mg/kg PO daily for 14 days. The dose volume was 10 mL/kg. Tumor volume, tumor growth inhibition (TGI), body weight, and clinical signs were monitored as described in Example 5.

[4] = Mouse plasma protein binding (in vitro binding study); type: in vitro ADME, CD1 mouse
Procedure: Free drug fraction in brain and plasma compartment was determined in vitro (Table 7). Brain to plasma (B/P) ratio was also determined in vivo (Table 8).

CYP1A2 = biological target: T1, CYP1A2 (Homo sapiens, UniProt P05177); assay: CYP inhibition in pooled human liver microsomes; type: in vitro ADME
T1 construct: from tissue; host or cells: pooled human liver microsomes
T1 sequence (P05177 whole entry): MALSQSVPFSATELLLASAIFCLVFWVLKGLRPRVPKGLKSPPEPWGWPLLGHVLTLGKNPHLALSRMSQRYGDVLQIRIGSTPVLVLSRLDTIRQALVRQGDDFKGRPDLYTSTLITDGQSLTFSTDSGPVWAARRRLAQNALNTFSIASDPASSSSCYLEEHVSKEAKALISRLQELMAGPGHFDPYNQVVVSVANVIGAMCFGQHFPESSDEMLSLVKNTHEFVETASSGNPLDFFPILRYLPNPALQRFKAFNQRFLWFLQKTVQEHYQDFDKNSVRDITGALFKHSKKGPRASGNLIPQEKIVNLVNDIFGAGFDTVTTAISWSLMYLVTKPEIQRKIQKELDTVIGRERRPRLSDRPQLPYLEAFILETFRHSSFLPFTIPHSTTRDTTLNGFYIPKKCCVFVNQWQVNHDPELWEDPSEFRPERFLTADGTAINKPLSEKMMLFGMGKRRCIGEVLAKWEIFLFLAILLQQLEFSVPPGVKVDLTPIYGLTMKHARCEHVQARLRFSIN

CYP2D6 = biological target: T2, CYP2D6 (Homo sapiens, UniProt P10635); assay: CYP inhibition in pooled human liver microsomes; type: in vitro ADME
T2 construct: from tissue; host or cells: pooled human liver microsomes
T2 sequence (P10635 whole entry): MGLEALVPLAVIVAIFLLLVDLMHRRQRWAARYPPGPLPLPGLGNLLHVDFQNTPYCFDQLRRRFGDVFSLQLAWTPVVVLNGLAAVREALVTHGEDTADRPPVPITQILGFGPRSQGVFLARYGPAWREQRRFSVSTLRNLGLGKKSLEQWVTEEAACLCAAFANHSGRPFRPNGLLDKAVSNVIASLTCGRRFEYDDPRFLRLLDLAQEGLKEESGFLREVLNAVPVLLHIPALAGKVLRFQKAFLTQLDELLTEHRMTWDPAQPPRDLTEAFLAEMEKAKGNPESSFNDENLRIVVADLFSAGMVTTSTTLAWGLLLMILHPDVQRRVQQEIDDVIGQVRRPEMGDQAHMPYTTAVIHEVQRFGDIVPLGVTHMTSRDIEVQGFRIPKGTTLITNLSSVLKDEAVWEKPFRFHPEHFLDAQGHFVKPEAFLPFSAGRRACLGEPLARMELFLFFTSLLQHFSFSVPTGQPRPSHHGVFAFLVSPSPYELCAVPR

MDA-MB-231 TNBC cells = assay: Growth of MDA-MB-231 TNBC cells; type: cell-based; conditions: 1%, 5% or 10% serum
Procedure: as §1, §2

[5] = Metabolic stability in human liver microsomes; type: in vitro ADME; conditions: for microsomal CLint: human, human liver microsomes
[6] = athymic nude, mouse, Plasma, oral 75 mg/kg
[7] = athymic nude, mouse, Tumor, oral 75 mg/kg

Structure (SMILES): COc1ccc(/C=C/c2cc(OC)cc(B(O)O)c2)cc1 [VMY-BC-1]
- TNBC cell invasion (MDA-MB-231 cells): significantly inhibited TNBC cell invasion in a time-dependent manner
- solubility thermodynamic (Thermodynamic solubility): 0.31 µM (≈ 0.0881 µg/mL)
- efflux ratio (Caco-2 permeability): 0.4
- Papp A→B (Caco-2 permeability; A-B): 51 ×10⁻⁶ cm/s
- Papp B→A (Caco-2 permeability; B-A): 20 ×10⁻⁶ cm/s
- Permeability in Caco-2 cell model (Caco-2 cell model): high permeability
- PolyQ aggregations vs vehicle (DMSO) [1]: decreased
- Stability in simulated gastric fluid [2]: stable
- Stability in simulated gastric fluid, pH 1.2 ([2]; pH 1.2): 87.81% remaining
- Drug levels in tumor vs plasma ([3]; 75 mg/kg oral): higher VMY-BC-1 drug levels in tumor than in plasma
- AUCextrap ([3]; Plasma, oral 75 mg/kg): 0.34%
- AUCextrap ([3]; Tumor, oral 75 mg/kg): 7.48%
- AUCinf ([3]; Tumor, oral 75 mg/kg): 41005.56 ng·h/g
- AUClast ([3]; Tumor, oral 75 mg/kg): 37936.36 ng·h/g
- Kp ([3]; athymic nude, mouse, tumor and plasma, 75 mg/kg oral, read-out: Cmax in tumors relative to plasma): 3
- AUC(0-inf) [3, 6]: 32300 ng·h/mL
- AUC(0-t) [3, 6]: 32200 ng·h/mL
- Cmax [3, 6]: 4530 ng/mL
- MRT last [3, 6]: 5.76 h
- Tmax [3, 6]: 0.5 h
- half-life [3, 6]: 3.15 h
- Cmax [3, 7]: 13600 ng/g
- MRT last [3, 7]: 1.94 h
- Tmax [3, 7]: 1 h
- half-life [3, 7]: 1.52 h
- Effect of knock down of ATM and ULK1 on functional activity (ATM and ULK1): abrogated the functional activity
- Treatment-related adverse effects (body weight and clinical signs) (U87 MG tumor xenografts; 75 mg/kg once daily oral, 14 days): No treatment-related adverse effects were observed
- Tumor growth inhibition (U87 MG tumor xenografts; 75 mg/kg once daily oral, end of 2 weeks): 32%
- Drug levels in tumor vs plasma (U87 MG tumor xenografts; U87 xenograft mice, 75 mg/kg): higher VMY-BC-1 drug levels in tumor than in plasma
- Apoptosis by TUNEL staining (U87 MG tumor xenografts; tumor tissue, 75 mg/kg): significant increase in apoptosis
- Reduction in Ki67 proliferation marker vs control (U87 MG tumor xenografts; tumor tissue, 75 mg/kg): 51%
- recovery ([4]; CD1, mouse, mouse plasma): 89.3%
- fraction unbound ([4]; CD1, mouse, plasma, Table 3): 0.265
- Plasma protein binding ([4]; CD1 mouse plasma): moderate plasma protein binding
- Bound (%) ([4]; Mouse Plasma): 73.48%
- fu (%) ([4]; Mouse Plasma): 26.52%
- IC50 (CYP1A2): 5 µM and 4.7 µM
- IC50 (CYP2D6): > 100 µM
- Growth of MDA-MB-231 TNBC cells (MDA-MB-231 TNBC cells): significantly inhibited growth
- Remaining at the end of incubation in human liver microsomes ([5]; 30 min incubation): 40%
- microsomal CLint ([5]; Table 3, read-out: Metabolic stability in human liver microsome (CLint)): 41.3 µL/min/mg
- microsomal CLint ([5]; read-out: Intrinsic clearance in human liver microsomes): 43 µL/min/mg

Reference: patent publication US20220213126A1, “SMALL MOLECULE AUTOPHAGY INDUCERS FOR THE TREATMENT OF CANCER AND NEURODEGENERATIVE DISEASES” (John Wayne Cancer Institute, priority 2019, published 2022)
